The source of these data is US4244967A, “Antiphlogistic pharmaceutical compositions containing a phenylethanolamine and methods of use” (priority 1978, dated 1981).

Values joined by “and” are separate entries in the source; they are usually repeats but may differ in a detail not shown here. Identical values can stand only once.

The nature of data set [1]: enteral absorption. It counts as in vivo. As to conditions: no data given.
Data set [2] can be described thus: long-lasting in vivo activity compared with other β-mimetics. The conditions noted are these: no data given.
For data set [3], the system named is human polymorphnuclear leucocytes (PMN). Description: Inhibition of the release of lysosomal β-glucuronidase from human polymorphnuclear leucocytes (PMN) during phagocytosis of zymosan particles. It is filed as cell-based. As to conditions: in vitro; for IC20: Homo sapiens, Leucocyte, 20% inhibition of release (EC20, not EC50), zymosan-phagocytosis, Fieller confidence limits given. As to the method:
The compounds were tested for their inhibitory effect on the release of lyosomal enzymes (β-glucuronidase was the lysomal marker-enzyme) from human polymorphnuclear leucocytes (PMN) during the phagocytosis of zymosan particles. According to WEISSMANN, the release of lyosomal enzymes in the course of the phagocytosis of immune complexes plays a significant role for the "self perpetuation" in rheumatoid arthritis. The test was performed according to the method of WEISSMANN et al. [J. Exp. Med. 134, 149s-165s (1971)]. The buffer system and the incubation times were changed, the number of the zymosan particles and the number of PMN was standardized. From the inhibiting effects produced by the test substance in comparison with the zymosan control, an EC20 with confidence limits according to FIELLER (Quart. J. Pharm. Pharmacol. 17, 117-123 (1944) was calculated by linear regression analysis according to LINDER [Stat. Methoden, 4th Ed., 148-162, published by Birkhauser, Basel, Switzerland (1964)] as the end concentration of the test substance that produced a 20% inhibition of the release of lysosomal β-glucuronidasefrom human polymorphnuclear leucocytes in vitro during the zymosan-phagocytosis.
Effect on the release of lysosomal β-glucuronidase from human polymorph-nucleic leucocytes under zymosan-phagocytosis.

Broadly, the IC20 is the concentration needed for an effect of 20%. High values mean weaker potency, low ones greater potency. Turning to `CCOC(=O)Nc1c(F)cc(C(O)CNC(C)(C)C)cc1C#N.Cl` (centres unmarked) [Compound A, 1-(4-ethoxycarbonylamino-3-cyano-5-fluoro-phenyl)-2-tert. butylamino-ethanol hydrochloride], in data set [1], the enteral absorption entry is listed as “very good”. For the same molecule, the “in vivo activity, duration” value in data set [2] is listed as “long-lasting”. The concentration for an effect of 20% (IC20) in data set [3] was 130 nM and 0.0468 µg/mL. Also, the “stronger inhibitor of the release of lysosomal enzymes than terbutaline sulfate” value in data set [3] (relative to terbutaline sulfate (B)) is given as “about 18 times stronger”.

For `CC(C)(C)NCC(O)c1cc(O)cc(O)c1` (centres unmarked) [B, reference compound], the IC20 in data set [3] is 2.4 µM and 0.658 µg/mL.
